According to patent publication US10703760B2, “Morphic forms of marizomib and uses thereof” (Celgene International II Sàrl, priority 2016, dated 2020):

Assays:
Format in all cases: physicochemical
[1] = Dynamic vapor sorption (DVS) of Sample 4
Excerpt: Prior to any testing, Sample 4 was characterized by XRPD, TGA, DSC, 1HNMR, and DVS. The results are given below in Table-8. The Corresponding figure numbers are given in the right hand column.

[2] = Polymorph screen of marizomib Sample 4 (evaporation, cooling, solvent/antisolvent, slurry, grinding, heat stress, amorphous attempts)
Description: For slow evaporation (SE), solutions containing marizomib Sample 4 in selected solvents were allowed to evaporate at ambient temperature from vials covered with perforated aluminum foil. For fast evaporation (FE), solutions containing marizomib Sample 4 in selected solvents were allowed to evaporate at ambient temperature from open vials. The results are given below in Table-10. For flash evaporation, […] of disordered marizomib Sample 4 were added dropwise to pre-warmed glass vials, allowing the solvent to flash evaporate immediate upon contact. Resulting solids were collected for analysis. The corresponding figure numbers are given in the right hand column.
For crash cooling (CC), concentrated solutions of marizomib Sample 4 were prepared at elevated temperature and filtered through pre-warmed 0.2-μm nylon filters into a clean vial pre-chilled in a dry ice/acetone bath. For fast cooling (FC) and slow cooling (SC), solutions containing marizomib Sample 4 in selected solvents at elevated temperatures in sealed vials. Solutions were then filtered into clean vials with 0.2-μm nylon filters and removed from the heating plate and left at ambient conditions (FC) or allowed to cool to specified temperature on the heating plate (SC). The results are given below in Table-11. As set forth below, the ratio of solvent mixtures are given by volume. Temperature and time are approximate. […]

Salt screen of marizomib = conditions: sulfonic acids and mineral acids
Description: For crash cooling (CC), a solution of MRZ and coformer was prepared at elevated temperature in a given solvent mixture. The vial was capped and immediately placed in a refrigerator or freezer. For fast cooling (FC), solutions of MRZ and coformer were prepared at elevated temperatures in given solvents or solvent mixtures. The vial was capped and placed on a bench top at room temperature to quickly cool. For slow cooling (SC), a solution of MRZ and coformer was prepared at elevated temperature in a given solvent mixture. The vial was capped and left in a heating block at elevated temperature. The heater then was turned off for the sample to cool down naturally to room temperature. For slow evaporation (SE), solutions of MRZ and coformer were generated at ambient temperature in a given solvent or solvent mixture. The solutions were allowed to evaporate partially or to dryness from a loosely capped vial at ambient conditions. Slurry experiments were carried out by making saturated solutions containing excess solid. The slurries were agitated at ambient or elevated temperatures for a specified amount of time. The solids present were recovered via positive pressure filtration. Solvent assisted grinding experiments were carried out by mixing MRZ and coformer in an agate mortar and pestle. Aliquots of solvent were added and the mixture ground manually for specified amount of time. […]

[3] = XRPD after storage for four years at 2-8° C.
Excerpt: Without wishing to be bound by theory, the results of FIGS. 5 and 6 are further supported by FIG. 7. […] (710).

SMILES | DVS weight change ([1]; 5-75% RH) | DVS weight change ([1]; 75-95% RH) | DVS weight change ([1]; 95-5% RH) | DVS weight change ([1]; at 5% RH) | Morphic form observed after exposure to solvents and anti-solvents [2] | Crystalline salt formation (Salt screen of marizomib) | XRPD spectra initially versus after storage [3]
C[C@@]12OC(=O)[C@]1([C@@H](O)[C@@H]1C=CCCC1)NC(=O)[C@@H]2CCCl [Sample 4, marizomib] | +0.039 wt % (5-75% RH) | +1.158 wt % (75-95% RH) | −1.276 wt % (95-5% RH) | −0.035 wt % (at 5% RH) |  |  | 
C[C@@]12OC(=O)[C@]1([C@@H](O)[C@@H]1C=CCCC1)NC(=O)[C@@H]2CCCl [marizomib] |  |  |  |  | only morphic Form I was observed | No crystalline salt of marizomib was produced | substantially identical
